Data as given in patent publication US20140271727A1, “METHOD OF USING AN ANTIDEPRESSANT FOR INCREASING IMMUNITY OF A SUBJECT AND TREATING CANCER” (NATIONAL YANG-MING UNIVERSITY, priority 2013, published 2014).

How the values were obtained:
CT26/luc cells = assay: MTT cell viability assay; assay type: cell-based, mouse; conditions: 0-80 μM for 24, 48 and 72 hrs
Method: The details in preparing the materials and processing relative analyses will be illustrated as follows. First, CT-26 murine colon carcinoma cells (obtained from Taiwan Liposome Company, Taipei, Taiwan) were transfected with the luciferase gene (hereafter called “CT26/luc”). The CT26/luc tumor cells were cultured in RPMI 1640 medium (Invitrogen) supplemented with 10% fetal bovine serum (Hyclone), 100 units/ml of penicillin, and […] streptomycin (Gibco-BRL) at 37° C. in a 5% CO2 atmosphere.
Before starting the following investigation. The cell viability is analyzed. 3-(4,5-Dimethylthiazol-2-yl)-2,5-diphenyltetrazolium bromide (MTT, Sigma, USA) was dissolved in phosphate-buffered saline (145 mM NaCl, 1.4 mM KH2PO4, 4.3 mM Na2HPO4, and 2.7 mM KCl, pH 7.2). The CT26/luc cells were seeded in 96-well plates overnight, and then treated with various concentrations, such as 0, 5, 10, 20, 40, and 80 μM, of mirtazapine for 24, 48, and 72 hrs. And then, cell viability was determined with MTT assay. […] After 4 hours incubation at 37° C., 100 μl DMSO was added to dissolve the MTT formazan, and the absorbance was determined with an ELISA reader (Power Wave X340, Bio-Tek Instrument Inc., USA) using a wavelength of 570 nm for the excitation. […] The cell cycle analysis was assayed using a FACScan (BD Sciences) and analyzed by CellQuest software (BD Sciences).

TNF-α = TNF-α in tumor by ex vivo Western blotting; design: species or system mouse; conditions: Always, Concurrent and After; day 42 post tumor inoculation; decreased to % of Never
Method: As to the quantification of TNF-α, the whole blood withdrawn from the pouch of each mouse once a week for up to 6 weeks was centrifuged at 600×g for 20 min, and serum was collected. The serum TNF-α level was evaluated with an ELISA kit (eBioscience, USA). The level of TNF-α in the tumor of mice on day 42 post tumor inoculation was determined using ex vivo Western Blotting assay. Briefly, 6 weeks after tumor inoculation, the mice were sacrificed and the tumors were quickly removed and minced, then added with lysis buffer containing 1% protease inhibitor cocktail (T-PER tissue protein extraction reagent, Thermo Scientific, USA). Equal amounts of proteins (40 μg) were subjected to SDS-PAGE and transferred to PVDF membranes (Millipore, Bedford, Mass.). Non-specific binding was blocked by incubation with 5% non-fat milk. Membrane was incubated with antibodies against TNF-α (Abbiotec, USA) and β-actin (Millipore, USA) overnight at 4° C. The goat-anti rabbit IgG (Millipore) and goat-anti mouse IgG conjugated with horseradish peroxidase (Millipore) were used as the secondary antibodies. The band signal from the antigen-antibody binding was illustrated with enhanced chemoluminescence system (ECL, Millipore). Image J software (National Institutes of Health, USA) was used for the quantitative analysis.

BALB/c mice = assay: Tail suspension test (immobility time); assay type: in vivo, mouse; conditions: continuous mirtazapine 10 mg/kg/d (drug and always); day 22 after tumor inoculation
Method: Second, all animal study protocols were approved by the Institutional Animal Care and Use Committee (IACAU) of National Yang Ming University. Mirtazapine (0.25 mg) was dissolved in 0.05 ml of 0.9% NaCl plus 0.5% absolute ethanol for each mouse (i.e. 10 mg/kg.) Male BALB/c mice (initial weights 25±2 g, and purchased from the National Laboratory Animal Center, Taipei, Taiwan) were housed in the cages, five mice per cage, under a 12:12 h reverse light/dark cycle with lights off at 6 pm Animals were handled and weighed daily for a week to reduce any non-specific stress responses. […] “Wild-type” means the mice are monitored without tumor inoculation and mirtazapine treatment, drug means the mice are monitored with continuous mirtazapine treatment but without tumor inoculation, never means the mice are monitored with tumor inoculation and daily 0.05 ml of 0.9% NaCl plus 0.5% absolute ethanol treatment but without mirtazapine treatment, always means the mice are monitored with mirtazapine treatment initiated 2 weeks before the tumor inoculation, and concurrent means the mice are monitored with tumor inoculation and mirtazapine treatment on the same day, and after means the mice are monitored with mirtazapine treatment initiated 2 weeks post the tumor inoculation. […]

CT26/luc tumor = assay: Survival of CT26/luc tumor-bearing BALB/c mice; assay type: in vivo, mouse; conditions: 10 mg/kg/d by gavage, never 43.1±2.6 days
Method: Second, all animal study protocols were approved by the Institutional Animal Care and Use Committee (IACAU) of National Yang Ming University. Mirtazapine (0.25 mg) was dissolved in 0.05 ml of 0.9% NaCl plus 0.5% absolute ethanol for each mouse (i.e. 10 mg/kg.) Male BALB/c mice (initial weights 25±2 g, and purchased from the National Laboratory Animal Center, Taipei, Taiwan) were housed in the cages, five mice per cage, under a 12:12 h reverse light/dark cycle with lights off at 6 pm Animals were handled and weighed daily for a week to reduce any non-specific stress responses. And then, please refer to FIG. 1A and FIG. 1B, FIG. 1A and FIG. 1B are diagrams showing the experimental designs according to an embodiment of the present invention. […] “Wild-type” means the mice are monitored without tumor inoculation and mirtazapine treatment, drug means the mice are monitored with continuous mirtazapine treatment but without tumor inoculation, never means the mice are monitored with tumor inoculation and daily 0.05 ml of 0.9% NaCl plus 0.5% absolute ethanol treatment but without mirtazapine treatment, always means the mice are monitored with mirtazapine treatment initiated 2 weeks before the tumor inoculation, and concurrent means the mice are monitored with tumor inoculation and mirtazapine treatment on the same day, and after means the mice are monitored with mirtazapine treatment initiated 2 weeks post the tumor inoculation. That is, the mice were assayed on day 22 for behaviors, and then sacrificed for the measurement of lymphocyte subsets and performed with ex vivo autoradiography.
Accordingly, the CT26/luc cells (2×10^6 cells/200 μL) suspended in the serum-free RPMI medium were transplanted subcutaneously into the dorsal region of the right thighs of the BALB/c mice. 10 mg/kg/d mirtazapine dissolved in 0.9% sodium chloride and 0.5% ethanol was administered to mice by gavage daily till mice expired or terminated on day 67 post tumor inoculation. Survival rate and interval were assayed for never, always, concurrent, and after (n=10 per group). […]

With `CN1CCN2c3ncccc3Cc3ccccc3C2C1` (stereo not drawn) [mirtazapine] the “toxicity to CT26 colon cells” value (CT26/luc cells) was “nontoxic”, the “TNF-α level in tumors relative to Never” value (TNF-α) was 40% and the immobility time (BALB/c mice) was “significantly decreased”. For the same molecule, the survival time (CT26/luc tumor; group after) was 57.01 ± 3.2 days, the survival time (CT26/luc tumor; group always, terminated on day 67) was 66.91 ± 0.1 days and the survival time (CT26/luc tumor; group concurrent) was 63.61 ± 1.5 days.
